Earlier results in PMC9627400 (ACS applied materials & interfaces, 2022).

Molecular target: IL-6
Settings: read-out: affinity; anti-IL-6 monoclonal antibody; cited from earlier work

Substance: siltuximab: an FDA-approved anti-IL-6 monoclonal antibody
- Kd: 0.0117 µM
